Like-named read-outs stand apart in the source and are kept apart here.
Legend:
SARS-CoV-2 [1] = type: in vivo, K18-hACE2 mice; details: 12 mg/kg per day intraperitoneal osmotic pump; 7 days after virus challenge
SARS-CoV-2 [2] = type: cell-based; details: for EC50: MOI 0.1
SARS-CoV-2 [3] = tested on: SARS-CoV-2; design: species or system K18-hACE2 mice; details: mouse, in vivo
SARS-CoV-2 [4] = details: VERO E6 cells
SARS-CoV-2 [5] = type: cell-based; details: EPINASAL tissue pretreated with 2.5, 25, 250 μM; MOI 0.1
SARS-CoV-2 [6] = type: cell-based; details: EPIAIRWAY tissue pretreated with 2.5, 25, 250 μM; MOI 0.1
SARS-CoV-2 [7] = type: cell-based; details: MOI 0.1
[8] = molecular target: plasma membrane nucleolin (Homo sapiens, UniProt P19338); design: key: 1: Indicates a good plasma membrane nucleolin-binding GRO.; 2: Indicates a nucleolin control (non-plasma membrane nucleolin binding); details: cited from earlier work
Chain of plasma membrane nucleolin (P19338 whole entry): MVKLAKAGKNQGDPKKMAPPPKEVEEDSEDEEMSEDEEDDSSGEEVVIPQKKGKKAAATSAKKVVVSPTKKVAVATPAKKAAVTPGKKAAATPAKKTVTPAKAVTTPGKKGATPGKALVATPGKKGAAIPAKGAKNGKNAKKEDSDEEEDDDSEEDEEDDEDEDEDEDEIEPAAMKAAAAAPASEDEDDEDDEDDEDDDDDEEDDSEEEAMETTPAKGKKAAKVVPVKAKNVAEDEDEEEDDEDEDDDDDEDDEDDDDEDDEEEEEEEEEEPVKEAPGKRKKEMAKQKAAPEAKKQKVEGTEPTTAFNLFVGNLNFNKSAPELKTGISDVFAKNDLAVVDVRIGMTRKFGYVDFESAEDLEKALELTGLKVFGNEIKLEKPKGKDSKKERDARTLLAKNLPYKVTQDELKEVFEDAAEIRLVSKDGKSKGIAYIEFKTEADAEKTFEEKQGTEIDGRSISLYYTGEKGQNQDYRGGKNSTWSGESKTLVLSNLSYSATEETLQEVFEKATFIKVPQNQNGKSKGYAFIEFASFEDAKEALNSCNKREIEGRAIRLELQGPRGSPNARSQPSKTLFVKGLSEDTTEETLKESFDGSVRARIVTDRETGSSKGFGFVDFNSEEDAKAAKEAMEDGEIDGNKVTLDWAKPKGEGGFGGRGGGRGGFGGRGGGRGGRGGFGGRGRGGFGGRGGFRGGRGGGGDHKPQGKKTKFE

[9] = PEP: drug 4 hours after virus challenge
[10] = PrEP: drug 4 hours before virus challenge

AS1411: GRO nucleolin-binding DNA aptamer, SEQ ID NO:10, ggtggtggtg gttgtggtgg tggtgg
survival rate (SARS-CoV-2 [1]): 100%
protective effect compared to the vehicle group (SARS-CoV-2 [2]; 2.5 μM and 20 μM, EPIAIRWAY tissue, FIG. 29): reduction of virus
EC50 (SARS-CoV-2 [2]; 72 Hours Post-Infection, EPIAIRWAY tissue): 942 nM
EC50 (SARS-CoV-2 [2]; 96 Hours Post-Infection, EPIAIRWAY tissue): 1410 nM
EC50 (SARS-CoV-2 [2]; 120 Hours Post-Infection, EPIAIRWAY tissue): 650 nM
interference between AS1411 and remdesivir in combination (SARS-CoV-2 [2]; EPIAIRWAY tissue TCID50/ml, FIG. 27): do not interfere with each other
interference between AS1411 and dexamethasone in combination (SARS-CoV-2 [2]; EPIAIRWAY tissue TCID50/ml, FIG. 28): do not interfere with each other
inhibiting the virus (TCID50/ml) (SARS-CoV-2 [3]): effective for inhibiting the virus in the nasal passage and kidneys of the mice, although not as effectively as in the lungs
inhibiting the virus in the brain (TCID50/ml) (SARS-CoV-2 [3]): not effective for inhibiting the virus in the brain
inhibiting the virus in the lungs (TCID50/ml) (SARS-CoV-2 [3]): effective for inhibiting the virus in the lungs
concentration at which inhibition of SARS-CoV-2 virus-induced syncytium formation begins (SARS-CoV-2 [4]; MOI 0.01, 72 hours): ≥ 0.625 µM
dose at which cytopathic effects of SARS-CoV-2 are markedly reduced (SARS-CoV-2 [4]; MOI 0.01, 72 hours): ≥ 0.625 µM
cytotoxicity (SARS-CoV-2 [4]; from 0.625 μM): without cytotoxicity
reduction in viral titer (SARS-CoV-2 [5]): ≤ 3.5 logs fold
toxicity in EPIAIRWAY model (EPIAIRWAY™ tissue): not toxic
reduction in viral titer (SARS-CoV-2 [6]): ≤ 5 logs fold
EC50 (SARS-CoV-2 [7]; [9]): 1500 nM
EC90 (SARS-CoV-2 [7]; [9]): 3200 nM
EC50 (SARS-CoV-2 [7]; [10]): 986 nM
EC90 (SARS-CoV-2 [7]; [10]): 2160 nM
plasma membrane nucleolin binding (footnote designation) [8]: GRO26B^1

— US20210299156A1 (priority 2020, published 2021)
